Test [1] has as its target T1, human TRPV1 (Homo sapiens, UniProt Q8NER1).
T1 construct: expressed in transfected cells; host or cells: HEK293
The test is described as follows: Block of capsaicin-induced Ca2+ influx, human assay (hTRPV1/HEK293, FLIPR). The test is classed as cell-based. The following applies: HEK293 cells transfected with human TRPV1; 150 nM capsaicin challenge; mean; > value = solubility limit in assay medium.

Test [2] deals with T2, rat TRPV1 (Rattus norvegicus, UniProt O35433).
T2 construct: expressed in transfected cells; host or cells: HEK293
T2 sequence (O35433 whole entry): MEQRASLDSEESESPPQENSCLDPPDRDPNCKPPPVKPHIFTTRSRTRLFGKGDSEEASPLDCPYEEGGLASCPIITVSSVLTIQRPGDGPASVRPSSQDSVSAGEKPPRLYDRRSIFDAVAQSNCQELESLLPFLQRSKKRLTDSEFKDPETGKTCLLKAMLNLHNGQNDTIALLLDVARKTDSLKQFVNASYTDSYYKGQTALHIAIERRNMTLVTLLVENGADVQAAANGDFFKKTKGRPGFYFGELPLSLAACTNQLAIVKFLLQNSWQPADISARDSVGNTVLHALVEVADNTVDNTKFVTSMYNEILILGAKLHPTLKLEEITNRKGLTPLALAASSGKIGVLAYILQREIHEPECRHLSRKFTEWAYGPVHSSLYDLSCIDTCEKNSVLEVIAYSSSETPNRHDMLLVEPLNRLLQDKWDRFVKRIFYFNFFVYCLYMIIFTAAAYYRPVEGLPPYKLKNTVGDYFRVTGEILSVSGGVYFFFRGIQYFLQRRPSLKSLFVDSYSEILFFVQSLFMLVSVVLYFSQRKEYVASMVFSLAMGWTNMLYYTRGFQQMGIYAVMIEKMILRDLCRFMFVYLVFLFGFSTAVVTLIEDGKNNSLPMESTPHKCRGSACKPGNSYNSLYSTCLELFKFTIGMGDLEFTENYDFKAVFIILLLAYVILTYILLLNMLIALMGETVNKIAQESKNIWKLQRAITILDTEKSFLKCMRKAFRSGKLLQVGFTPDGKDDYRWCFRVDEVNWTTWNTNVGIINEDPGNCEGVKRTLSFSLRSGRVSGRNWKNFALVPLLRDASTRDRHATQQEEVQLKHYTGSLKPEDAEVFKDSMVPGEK
The test is described as follows: Block of capsaicin-induced Ca2+ influx, rat assay (rTRPV1/HEK293, FLIPR). The test is classed as cell-based. A digest of the protocol: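 HEK293 cells expressing rat TRPV1, Fluo-3 loaded, preincubated 30 min with compound in 20 μM Ca2+ buffer (serial three-fold dilutions, usually from 10 μM, duplicate). Capsaicin-evoked fluorescence change over 100 s measured on FLIPR; IC50 by non-linear regression, averaged across runs.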

[3] abbreviates: HEK293 cells transfected with rat TRPV1, capsaicin challenge, mean, > value = solubility limit in assay medium, read-out: Rat IC50.

pIC50: −log10 of the molar value. Where a name gives a salt, the structure may show the parent alone. Read-outs that look alike come from different tables or passages of the source.

In US9440978B2, “Imidazolo-, oxazolo-, and thiazolopyrimidine modulators of TRPV1” (Janssen Pharmaceutica NV, priority 2007, dated 2016) one finds IC50 data, which are given here for 5 molecules.

A word on the pIC50: it is the negative decadic logarithm of the IC50, by convention in mol/L.

T1 sequence (Q8NER1 whole entry): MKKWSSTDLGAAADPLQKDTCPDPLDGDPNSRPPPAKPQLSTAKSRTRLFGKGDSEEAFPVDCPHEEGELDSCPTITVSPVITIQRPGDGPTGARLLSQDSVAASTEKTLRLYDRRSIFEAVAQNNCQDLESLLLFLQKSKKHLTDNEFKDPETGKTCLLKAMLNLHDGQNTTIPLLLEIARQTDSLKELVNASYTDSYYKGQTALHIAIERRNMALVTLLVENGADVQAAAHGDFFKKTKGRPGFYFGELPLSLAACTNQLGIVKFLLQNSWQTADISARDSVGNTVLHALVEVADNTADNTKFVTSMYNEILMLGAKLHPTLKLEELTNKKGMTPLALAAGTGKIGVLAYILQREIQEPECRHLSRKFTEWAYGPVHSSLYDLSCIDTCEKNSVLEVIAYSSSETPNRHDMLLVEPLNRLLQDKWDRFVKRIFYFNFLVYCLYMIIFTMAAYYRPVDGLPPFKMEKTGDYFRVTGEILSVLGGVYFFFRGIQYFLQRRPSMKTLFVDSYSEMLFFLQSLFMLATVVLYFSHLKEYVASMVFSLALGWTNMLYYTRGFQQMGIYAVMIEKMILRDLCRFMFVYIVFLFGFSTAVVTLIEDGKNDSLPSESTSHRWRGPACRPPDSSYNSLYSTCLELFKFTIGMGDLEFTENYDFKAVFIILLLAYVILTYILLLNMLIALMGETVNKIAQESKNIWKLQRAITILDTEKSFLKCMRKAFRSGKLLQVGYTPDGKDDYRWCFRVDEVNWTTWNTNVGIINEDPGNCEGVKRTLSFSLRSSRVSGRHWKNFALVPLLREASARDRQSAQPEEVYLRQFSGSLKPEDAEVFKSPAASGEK

For `CC(C)[Si](Sc1ccccc1Cc1nc2c(Nc3ccc(C(F)(F)F)cc3)ncnc2s1)(C(C)C)C(C)C` [Example 104, (4-Trifluoromethyl-phenyl)-[2-(2-triisopropylsilanylsulfanyl-benzyl)-thiazolo[5,4-d]pyrimidin-7-yl]-amine], the pIC50 was 6.90 in test [1] and 7.16 in test [2].

For `FC(F)(F)c1ccc(Nc2ncnc3sc(Cc4ccccc4-c4ccccc4)nc23)cc1` [Example 105, (2-Biphenyl-2-ylmethylthiazolo[5,4-d]pyrimidin-7-yl)-(4-trifluoromethylphenyl)-amine], the negative-log IC50 (pIC50) in test [1] is 5.79; in test [2] (setting [3]) it was 5.91.

Regarding `Oc1ccccc1-c1ccccc1Cc1nc2c(Nc3ccc(C(F)(F)F)cc3)ncnc2s1` [Example 106, 2′-[7-(4-Trifluoromethylphenylamino)-thiazolo[5,4-d]pyrimidin-2-ylmethyl]-biphenyl-2-ol], the negative logarithm of the IC50 (pIC50) was 6.00 in test [1] and 6.46 in test [2] (setting [3]).

For `NC(=O)c1ccc(-c2ccccc2Cc2nc3c(Nc4ccc(C(F)(F)F)cc4)ncnc3s2)cc1` [Example 107, 2′-[7-(4-Trifluoromethylphenylamino)-thiazolo[5,4-d]pyrimidin-2-ylmethyl]-biphenyl-4-carboxylic acid amide], the negative logarithm of the IC50 (pIC50) was 5.16 in test [1] and 5.81 in test [2] (setting [3]).

`FC(F)(F)c1ccc(Nc2ncnc3[nH]c(Cc4c(Cl)cccc4Cl)nc23)cc1` [Example 109, [8-(2,6-Dichloro-benzyl)-9H-purin-6-yl]-(4-trifluoromethyl-phenyl)-amine trifluoroacetic acid salt]: the values for the pIC50 in test [1] and in test [2] (setting [3]) were 6.15 and 6.94, respectively.
